{"source": "paper PMC12130801", "about": "“Restoration of the Tumor Suppressor Function of Y220C-Mutant p53 by Rezatapopt, a Small-Molecule Reactivator” (Cancer Discovery, 2025)", "key": {"p53 Y220C mutant": {"molecular_target": "T1, p53 Y220C mutant (Homo sapiens, UniProt P04637, Y220C)", "T1 construct": "gene TP53; Biotinylated DBD of p53-Y220C", "T1 sequence (P04637 94-312 limits assumed, stated change not applied)": "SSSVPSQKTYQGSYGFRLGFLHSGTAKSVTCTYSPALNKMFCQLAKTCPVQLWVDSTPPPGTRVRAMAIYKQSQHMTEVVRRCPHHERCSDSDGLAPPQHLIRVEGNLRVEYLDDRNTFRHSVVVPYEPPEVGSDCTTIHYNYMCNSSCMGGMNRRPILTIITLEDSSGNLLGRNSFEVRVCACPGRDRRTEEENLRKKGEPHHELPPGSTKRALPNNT", "experiment": "SPR (Biacore 8K); also thermal shift and TR-FRET DNA binding"}, "A-431": {"system": "A-431", "experiment": "cells", "set-up": "5-day MTT proliferation assay, absorbance 570 nm, per cent viability of untreated cells, IC50 from XLfit", "conditions": "Homo sapiens, A-431, 120 h; 5-day MTT proliferation; read-out: PC14586 MTT IC50", "protocol": "(§1) The antiproliferative activity of compounds was evaluated using the MTT (Sigma-Aldrich, Cat. # M5655-1G) assay in a 96-well plate format. Cells were seeded at an appropriate density depending on the growth rate in 96-well microtiter plates, and compounds were tested at eight concentrations with 2-fold serial dilutions. Antiproliferative activity was assessed 5 days later by the conversion of the tetrazolium dye MTT (1 mg/mL) into insoluble formazan by viable cells, which was dissolved in ethanol and measured by a microplate reader for absorbance with a wavelength of 570 nm and a reference wavelength of 650 nm. The results were presented as a percentage of the viability of untreated cells (control). The IC50 was determined from the regression of a plot of the logarithm of concentration versus percentage of viability by XLfit IDBS. The data presented thus far indicate that PC14586 is a potent and selective reactivator of p53-Y220C with strong antiproliferative effects driven by cell-cycle arrest. To further investigate the selectivity and effects on proliferation following treatment with PC14586, additional p53-Y220C, p53 hotspot mutant, and p53-WT cell lines were assessed in a 5-day 3-[4,5-dimethylthiazol-2-yl]-2,5-diphenyl tetrazolium bromide (MTT) assay. […] The less sensitive p53-Y220C cell lines, TE-8 and HCC1419, have an additional p53 mutation. In the case of TE-8, the secondary mutation, M237I, is in the DBD of p53 and has been reported to interfere with p53 DNA binding ([36]). The spectrum of sensitivity to our compounds in cell lines with additional p53 mutations may indicate that monitoring second-site mutations and patient responses could yield mechanistic insights and potential biomarkers."}, "BxPC-3": {"system": "BxPC-3", "experiment": "cells", "set-up": "5-day MTT proliferation assay, absorbance 570 nm, per cent viability of untreated cells, IC50 from XLfit", "conditions": "Homo sapiens, BXPC-3, 120 h; 5-day MTT proliferation; read-out: PC14586 MTT IC50", "protocol": "as §1"}, "C-33A": {"system": "C-33A", "experiment": "cells", "set-up": "5-day MTT proliferation assay, absorbance 570 nm, per cent viability of untreated cells, IC50 from XLfit", "conditions": "Homo sapiens, C-33-A, 120 h; 5-day MTT proliferation; read-out: PC14586 MTT IC50", "protocol": "as §1"}, "EFE-184": {"system": "EFE-184", "experiment": "cells", "set-up": "5-day MTT proliferation assay, absorbance 570 nm, per cent viability of untreated cells, IC50 from XLfit", "conditions": "Homo sapiens, EFE-184, 120 h; 5-day MTT proliferation; read-out: PC14586 MTT IC50", "protocol": "as §1"}, "HCC1419#": {"system": "HCC1419#", "experiment": "cells", "set-up": "5-day MTT proliferation assay, absorbance 570 nm, per cent viability of untreated cells, IC50 from XLfit", "conditions": "Homo sapiens, HCC1419, 120 h; 5-day MTT proliferation; read-out: PC14586 MTT IC50", "protocol": "as §1"}, "HCC2935": {"system": "HCC2935", "experiment": "cells", "set-up": "5-day MTT proliferation assay, absorbance 570 nm, per cent viability of untreated cells, IC50 from XLfit", "conditions": "Homo sapiens, HCC2935, 120 h; 5-day MTT proliferation; read-out: PC14586 MTT IC50", "protocol": "as §1"}, "HCT 116": {"system": "HCT 116", "experiment": "cells", "set-up": "5-day MTT proliferation assay, absorbance 570 nm, per cent viability of untreated cells, IC50 from XLfit", "conditions": "Homo sapiens, HCT-116, 120 h; 5-day MTT proliferation; read-out: PC14586 MTT IC50", "protocol": "as §1"}, "HuH-7": {"system": "HuH-7", "experiment": "cells", "set-up": "5-day MTT proliferation assay, absorbance 570 nm, per cent viability of untreated cells, IC50 from XLfit", "conditions": "Homo sapiens, Huh-7, 120 h; 5-day MTT proliferation; read-out: PC14586 MTT IC50", "protocol": "as §1"}, "KON": {"system": "KON", "experiment": "cells", "set-up": "5-day MTT proliferation assay, absorbance 570 nm, per cent viability of untreated cells, IC50 from XLfit", "conditions": "120 h; 5-day MTT proliferation; read-out: PC14586 MTT IC50", "protocol": "as §1"}, "MFE-296#": {"system": "MFE-296#", "experiment": "cells", "set-up": "5-day MTT proliferation assay, absorbance 570 nm, per cent viability of untreated cells, IC50 from XLfit", "conditions": "Homo sapiens, MFE-296, 120 h; 5-day MTT proliferation; read-out: PC14586 MTT IC50", "protocol": "as §1"}, "NUGC-3_KO": {"system": "NUGC-3_KO", "experiment": "cells", "set-up": "5-day MTT proliferation assay, absorbance 570 nm, per cent viability of untreated cells, IC50 from XLfit", "conditions": "120 h; 5-day MTT proliferation; read-out: PC14586 MTT IC50", "protocol": "as §1"}, "NUGC-3": {"system": "NUGC-3", "experiment": "cells", "set-up": "5-day MTT proliferation assay, absorbance 570 nm, per cent viability of untreated cells, IC50 from XLfit", "conditions": "Homo sapiens, NUGC-3, 120 h; 5-day MTT proliferation; read-out: PC14586 MTT IC50", "protocol": "as §1"}, "SF-295": {"system": "SF-295", "experiment": "cells", "set-up": "5-day MTT proliferation assay, absorbance 570 nm, per cent viability of untreated cells, IC50 from XLfit", "conditions": "Homo sapiens, SF-295, 120 h; 5-day MTT proliferation; read-out: PC14586 MTT IC50", "protocol": "as §1"}, "SJSA-1": {"system": "SJSA-1", "experiment": "cells", "set-up": "5-day MTT proliferation assay, absorbance 570 nm, per cent viability of untreated cells, IC50 from XLfit", "conditions": "Homo sapiens, SJSA-1, 120 h; 5-day MTT proliferation; read-out: PC14586 MTT IC50", "protocol": "as §1"}, "SNU-NCC-19": {"system": "SNU-NCC-19", "experiment": "cells", "set-up": "5-day MTT proliferation assay, absorbance 570 nm, per cent viability of untreated cells, IC50 from XLfit", "conditions": "120 h; 5-day MTT proliferation; read-out: PC14586 MTT IC50", "protocol": "as §1"}, "SU.86.86": {"system": "SU.86.86", "experiment": "cells", "set-up": "5-day MTT proliferation assay, absorbance 570 nm, per cent viability of untreated cells, IC50 from XLfit", "conditions": "Homo sapiens, SU.86.86, 120 h; 5-day MTT proliferation; read-out: PC14586 MTT IC50", "protocol": "as §1"}, "T3M-4": {"system": "T3M-4", "experiment": "cells", "set-up": "5-day MTT proliferation assay, absorbance 570 nm, per cent viability of untreated cells, IC50 from XLfit", "conditions": "T3M4, 120 h; 5-day MTT proliferation; read-out: PC14586 MTT IC50", "protocol": "as §1"}, "TE-8#": {"system": "TE-8#", "experiment": "cells", "set-up": "5-day MTT proliferation assay, absorbance 570 nm, per cent viability of untreated cells, IC50 from XLfit", "conditions": "Homo sapiens, TE-8, 120 h; 5-day MTT proliferation; read-out: PC14586 MTT IC50", "protocol": "as §1"}, "TOV-112D": {"system": "TOV-112D", "experiment": "cells", "set-up": "5-day MTT proliferation assay, absorbance 570 nm, per cent viability of untreated cells, IC50 from XLfit", "conditions": "Homo sapiens, TOV112D, 120 h; 5-day MTT proliferation; read-out: PC14586 MTT IC50", "protocol": "as §1"}}, "data": [{"compound": "CNC(=O)c1ccc(NCC#Cc2cc3c(N[C@@H]4CCN(C)C[C@@H]4F)cccc3n2CC(F)(F)F)c(OC)c1", "note": "[PC14586, rezatapopt]", "values": [{"measurement": "Kd", "setting": "p53 Y220C mutant", "value": "PC14374 and PC14586 both have low nmol/L SC150 and SPR Kd"}, {"measurement": "IC50", "setting": "A-431", "value": 13.8, "unit": "µM"}, {"measurement": "IC50", "setting": "BxPC-3", "value": 0.33, "unit": "µM"}, {"measurement": "IC50", "setting": "C-33A", "value": 18.5, "unit": "µM"}, {"measurement": "IC50", "setting": "EFE-184", "value": 12.5, "unit": "µM"}, {"measurement": "IC50", "setting": "HCC1419#", "value": 4.87, "unit": "µM"}, {"measurement": "IC50", "setting": "HCC2935", "value": 0.4, "unit": "µM"}, {"measurement": "IC50", "setting": "HCT 116", "value": 19.3, "unit": "µM"}, {"measurement": "IC50", "setting": "HuH-7", "value": 0.49, "unit": "µM"}, {"measurement": "IC50", "setting": "KON", "value": 1.05, "unit": "µM"}, {"measurement": "IC50", "setting": "MFE-296#", "value": 0.5, "unit": "µM"}, {"measurement": "IC50", "setting": "NUGC-3_KO", "value": 15.5, "unit": "µM"}, {"measurement": "IC50", "setting": "NUGC-3", "value": 0.59, "unit": "µM"}, {"measurement": "IC50", "setting": "SF-295", "value": 11.2, "unit": "µM"}, {"measurement": "IC50", "setting": "SJSA-1", "value": "> 20", "unit": "µM"}, {"measurement": "IC50", "setting": "SNU-NCC-19", "value": 0.23, "unit": "µM"}, {"measurement": "IC50", "setting": "SU.86.86", "value": 16.8, "unit": "µM"}, {"measurement": "IC50", "setting": "T3M-4", "value": 1.81, "unit": "µM"}, {"measurement": "IC50", "setting": "TE-8#", "value": 8.66, "unit": "µM"}, {"measurement": "IC50", "setting": "TOV-112D", "value": 13, "unit": "µM"}]}]}
